These are literature values, as cited in patent publication US20060183897A1, “Biaryl substituted triazoles as sodium channel blockers” (priority 2003, published 2006).

For data set [1], the system named is rat models of peripheral nerve injury. Conditions: intravenous application; concentrations that do not affect general behavior and motor function.
Data set [2] deals with postherpetic neuralgia (PHN). Conditions: intravenous.
The subject of data set [3] is patients with peripheral nerve injury. The conditions noted are these: continuous infusion; placebo-controlled.

`CCN(CC)CC(=O)Nc1c(C)cccc1C` [lidocaine]: in data set [1], the “ectopic activity in the injured nerve” value is given as “suppress the ectopic activity” and the tactile allodynia entry was “reverse the tactile allodynia”. Moreover, the “pain intensity associated with postherpetic neuralgia” value in data set [2] is recorded as “reduced pain intensity”. In addition, the pain scores result in data set [3] was “reduced pain scores”.
